Test results reported in ChEMBL document CHEMBL5653631, “A Potent and Selective ULK1 Inhibitor Suppresses Autophagy and Sensitizes Cancer Cells to Nutrient Stress” (iScience, 2018).

How the values were obtained:
[1] = target: Cyclin-dependent kinase 13 (Homo sapiens) (UniProt Q14004); assay: Inhibition of human recombinant CHED at 500 nM in presence of ATP by radiometric assay relative to control
[2] = target: Ribosomal protein S6 kinase alpha-1 (Homo sapiens) (UniProt Q15418); assay: Inhibition of human recombinant RSK1 at 500 nM related to control ULK1
[3] = target: Protein kinase C iota type (Homo sapiens) (UniProt P41743); assay: Inhibition of human recombinant PKCi at 500 nM in presence of ATP by radiometric assay relative to control
[4] = target: T1, G protein-coupled receptor kinase 3 (Homo sapiens) (UniProt P35626); assay: Inhibition of human recombinant BARK2 at 15 nM related to control ULK1
T1 sequence (whole entry): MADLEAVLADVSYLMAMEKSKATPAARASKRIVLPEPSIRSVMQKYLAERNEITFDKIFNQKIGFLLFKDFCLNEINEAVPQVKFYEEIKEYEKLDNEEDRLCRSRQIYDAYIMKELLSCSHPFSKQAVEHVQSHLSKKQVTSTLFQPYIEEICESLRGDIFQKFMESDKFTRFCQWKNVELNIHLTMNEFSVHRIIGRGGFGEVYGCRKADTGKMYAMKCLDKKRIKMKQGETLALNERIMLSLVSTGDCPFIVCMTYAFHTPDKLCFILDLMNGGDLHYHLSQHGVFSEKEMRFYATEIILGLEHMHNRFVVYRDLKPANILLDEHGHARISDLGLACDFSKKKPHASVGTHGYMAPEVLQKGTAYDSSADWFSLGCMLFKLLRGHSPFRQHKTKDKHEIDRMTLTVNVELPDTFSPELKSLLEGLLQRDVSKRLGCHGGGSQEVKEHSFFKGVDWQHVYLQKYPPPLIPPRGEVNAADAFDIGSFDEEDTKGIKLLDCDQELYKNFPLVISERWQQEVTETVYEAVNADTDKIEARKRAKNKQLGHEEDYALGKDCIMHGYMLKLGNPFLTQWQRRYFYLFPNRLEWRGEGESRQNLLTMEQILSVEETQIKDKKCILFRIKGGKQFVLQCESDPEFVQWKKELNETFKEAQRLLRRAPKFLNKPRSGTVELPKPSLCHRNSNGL

[5] = target: T2, Protein kinase C epsilon type (Homo sapiens) (UniProt Q02156); assay: Inhibition of human recombinant PKCe at 15 nM related to control ULK1
T2 sequence (whole entry): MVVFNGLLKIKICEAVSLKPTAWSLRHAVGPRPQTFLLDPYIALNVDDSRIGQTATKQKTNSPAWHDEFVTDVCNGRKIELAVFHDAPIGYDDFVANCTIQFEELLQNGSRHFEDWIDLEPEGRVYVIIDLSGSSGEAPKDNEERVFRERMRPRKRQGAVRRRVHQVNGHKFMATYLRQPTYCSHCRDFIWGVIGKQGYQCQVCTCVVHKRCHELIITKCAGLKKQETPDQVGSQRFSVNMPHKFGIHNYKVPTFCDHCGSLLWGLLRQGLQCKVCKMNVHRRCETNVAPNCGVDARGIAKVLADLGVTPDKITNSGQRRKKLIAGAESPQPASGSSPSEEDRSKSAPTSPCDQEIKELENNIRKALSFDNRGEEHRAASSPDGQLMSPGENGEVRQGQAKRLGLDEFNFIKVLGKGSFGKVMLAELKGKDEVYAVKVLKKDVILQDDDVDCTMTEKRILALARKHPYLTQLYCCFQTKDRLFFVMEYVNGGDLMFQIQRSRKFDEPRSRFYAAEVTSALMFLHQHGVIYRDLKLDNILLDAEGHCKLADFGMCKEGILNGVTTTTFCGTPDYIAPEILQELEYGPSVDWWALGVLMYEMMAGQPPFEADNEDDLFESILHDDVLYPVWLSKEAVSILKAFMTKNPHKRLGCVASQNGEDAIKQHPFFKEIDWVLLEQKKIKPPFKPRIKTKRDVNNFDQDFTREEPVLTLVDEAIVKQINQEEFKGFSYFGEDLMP

[6] = target: Epithelial discoidin domain-containing receptor 1 (Homo sapiens) (UniProt Q08345); assay: Inhibition of human recombinant DDR1 at 40 nM related to control ULK1
[7] = target: T3, Ephrin type-A receptor 3 (Homo sapiens) (UniProt P29320); assay: Inhibition of human recombinant EphA3 at 40 nM related to control ULK1
T3 sequence (whole entry): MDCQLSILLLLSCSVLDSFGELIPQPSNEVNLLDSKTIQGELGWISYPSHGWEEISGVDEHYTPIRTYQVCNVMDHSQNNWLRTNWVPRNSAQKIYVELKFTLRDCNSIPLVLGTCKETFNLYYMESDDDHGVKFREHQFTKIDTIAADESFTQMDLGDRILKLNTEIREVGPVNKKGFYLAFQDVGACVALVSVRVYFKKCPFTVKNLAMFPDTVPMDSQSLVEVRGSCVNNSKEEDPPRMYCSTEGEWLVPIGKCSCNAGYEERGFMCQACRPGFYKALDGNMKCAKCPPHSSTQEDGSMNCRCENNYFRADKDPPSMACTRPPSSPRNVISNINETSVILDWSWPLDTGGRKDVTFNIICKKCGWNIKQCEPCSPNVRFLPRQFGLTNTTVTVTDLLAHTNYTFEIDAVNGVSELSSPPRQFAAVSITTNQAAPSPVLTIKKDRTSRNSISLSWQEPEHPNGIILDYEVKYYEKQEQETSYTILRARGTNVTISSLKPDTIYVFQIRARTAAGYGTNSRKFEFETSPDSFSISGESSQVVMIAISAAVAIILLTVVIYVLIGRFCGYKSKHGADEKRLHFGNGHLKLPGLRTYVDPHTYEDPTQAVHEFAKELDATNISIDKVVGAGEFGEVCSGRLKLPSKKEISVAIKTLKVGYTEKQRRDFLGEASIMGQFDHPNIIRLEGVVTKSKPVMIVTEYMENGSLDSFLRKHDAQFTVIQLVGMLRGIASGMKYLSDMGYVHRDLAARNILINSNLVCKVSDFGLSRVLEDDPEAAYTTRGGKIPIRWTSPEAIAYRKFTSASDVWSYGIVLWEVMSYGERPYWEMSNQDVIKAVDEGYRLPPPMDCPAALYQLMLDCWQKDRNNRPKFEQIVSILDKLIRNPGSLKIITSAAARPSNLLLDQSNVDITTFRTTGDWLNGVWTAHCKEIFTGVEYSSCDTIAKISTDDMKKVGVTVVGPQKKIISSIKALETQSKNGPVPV

Chain of Epithelial discoidin domain-containing receptor 1 (Homo sapiens) (Q08345 whole entry, the tested form may be a part): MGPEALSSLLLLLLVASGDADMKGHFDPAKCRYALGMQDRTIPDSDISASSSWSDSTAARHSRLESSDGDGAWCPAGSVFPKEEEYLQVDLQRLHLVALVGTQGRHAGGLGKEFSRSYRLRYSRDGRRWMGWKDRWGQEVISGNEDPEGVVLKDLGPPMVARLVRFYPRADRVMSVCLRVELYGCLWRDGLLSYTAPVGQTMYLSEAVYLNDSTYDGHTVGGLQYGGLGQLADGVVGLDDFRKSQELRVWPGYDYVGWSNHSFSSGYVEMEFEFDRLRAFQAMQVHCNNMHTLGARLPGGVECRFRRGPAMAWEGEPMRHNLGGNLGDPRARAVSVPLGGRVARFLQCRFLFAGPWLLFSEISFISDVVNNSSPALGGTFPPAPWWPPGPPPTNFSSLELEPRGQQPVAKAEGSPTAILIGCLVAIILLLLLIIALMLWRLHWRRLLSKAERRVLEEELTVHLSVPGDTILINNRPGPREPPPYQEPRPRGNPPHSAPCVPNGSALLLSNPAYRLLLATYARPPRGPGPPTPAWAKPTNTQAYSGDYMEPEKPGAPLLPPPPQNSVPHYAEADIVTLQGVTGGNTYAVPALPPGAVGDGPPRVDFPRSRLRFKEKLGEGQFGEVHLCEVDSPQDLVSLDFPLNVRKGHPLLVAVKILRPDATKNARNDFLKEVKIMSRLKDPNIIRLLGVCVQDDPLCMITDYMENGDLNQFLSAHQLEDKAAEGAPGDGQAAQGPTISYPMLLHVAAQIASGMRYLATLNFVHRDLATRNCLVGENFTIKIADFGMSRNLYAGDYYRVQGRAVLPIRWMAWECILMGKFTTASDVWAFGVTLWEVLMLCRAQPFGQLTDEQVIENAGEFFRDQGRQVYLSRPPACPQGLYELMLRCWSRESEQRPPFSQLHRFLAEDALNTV
Chain of Cyclin-dependent kinase 13 (Homo sapiens) (Q14004 whole entry, looked up): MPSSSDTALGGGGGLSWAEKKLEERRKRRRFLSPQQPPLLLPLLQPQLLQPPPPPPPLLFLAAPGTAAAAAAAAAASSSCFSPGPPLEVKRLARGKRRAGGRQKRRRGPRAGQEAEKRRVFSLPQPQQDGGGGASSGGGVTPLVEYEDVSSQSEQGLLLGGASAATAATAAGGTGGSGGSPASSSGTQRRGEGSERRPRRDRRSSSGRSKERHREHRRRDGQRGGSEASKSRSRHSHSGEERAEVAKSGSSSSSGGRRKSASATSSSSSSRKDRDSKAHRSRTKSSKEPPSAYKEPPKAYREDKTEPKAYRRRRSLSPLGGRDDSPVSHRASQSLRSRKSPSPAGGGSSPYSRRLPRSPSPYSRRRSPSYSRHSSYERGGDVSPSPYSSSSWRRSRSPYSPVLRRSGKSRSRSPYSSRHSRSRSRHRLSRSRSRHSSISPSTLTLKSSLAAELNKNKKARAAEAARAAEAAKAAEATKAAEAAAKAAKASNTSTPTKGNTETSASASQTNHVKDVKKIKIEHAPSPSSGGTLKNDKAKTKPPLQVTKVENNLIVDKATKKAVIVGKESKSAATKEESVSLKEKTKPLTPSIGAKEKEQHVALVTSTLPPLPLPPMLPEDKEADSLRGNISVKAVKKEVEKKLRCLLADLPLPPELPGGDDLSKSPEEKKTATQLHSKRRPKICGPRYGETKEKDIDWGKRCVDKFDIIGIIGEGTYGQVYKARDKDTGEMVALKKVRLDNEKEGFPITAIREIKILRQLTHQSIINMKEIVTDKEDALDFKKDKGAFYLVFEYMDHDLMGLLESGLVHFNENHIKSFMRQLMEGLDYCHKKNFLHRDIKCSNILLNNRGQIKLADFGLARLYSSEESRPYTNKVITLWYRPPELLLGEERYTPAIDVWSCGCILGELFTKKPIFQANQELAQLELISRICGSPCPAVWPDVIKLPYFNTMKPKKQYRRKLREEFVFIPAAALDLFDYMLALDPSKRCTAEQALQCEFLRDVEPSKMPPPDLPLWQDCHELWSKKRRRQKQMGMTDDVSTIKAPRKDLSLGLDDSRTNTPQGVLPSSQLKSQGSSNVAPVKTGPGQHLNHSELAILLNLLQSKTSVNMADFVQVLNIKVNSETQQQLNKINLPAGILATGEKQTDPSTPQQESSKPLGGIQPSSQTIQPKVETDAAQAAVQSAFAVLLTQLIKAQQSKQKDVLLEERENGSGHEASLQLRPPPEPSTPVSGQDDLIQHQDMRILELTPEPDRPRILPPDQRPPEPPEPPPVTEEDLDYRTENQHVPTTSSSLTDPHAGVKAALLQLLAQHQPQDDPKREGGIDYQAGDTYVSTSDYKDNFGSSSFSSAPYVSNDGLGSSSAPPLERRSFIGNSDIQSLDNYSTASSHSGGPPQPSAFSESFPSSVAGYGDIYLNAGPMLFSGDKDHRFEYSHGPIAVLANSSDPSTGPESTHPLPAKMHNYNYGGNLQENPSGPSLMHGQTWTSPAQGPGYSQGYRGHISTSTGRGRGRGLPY
Chain of Ribosomal protein S6 kinase alpha-1 (Homo sapiens) (Q15418 whole entry): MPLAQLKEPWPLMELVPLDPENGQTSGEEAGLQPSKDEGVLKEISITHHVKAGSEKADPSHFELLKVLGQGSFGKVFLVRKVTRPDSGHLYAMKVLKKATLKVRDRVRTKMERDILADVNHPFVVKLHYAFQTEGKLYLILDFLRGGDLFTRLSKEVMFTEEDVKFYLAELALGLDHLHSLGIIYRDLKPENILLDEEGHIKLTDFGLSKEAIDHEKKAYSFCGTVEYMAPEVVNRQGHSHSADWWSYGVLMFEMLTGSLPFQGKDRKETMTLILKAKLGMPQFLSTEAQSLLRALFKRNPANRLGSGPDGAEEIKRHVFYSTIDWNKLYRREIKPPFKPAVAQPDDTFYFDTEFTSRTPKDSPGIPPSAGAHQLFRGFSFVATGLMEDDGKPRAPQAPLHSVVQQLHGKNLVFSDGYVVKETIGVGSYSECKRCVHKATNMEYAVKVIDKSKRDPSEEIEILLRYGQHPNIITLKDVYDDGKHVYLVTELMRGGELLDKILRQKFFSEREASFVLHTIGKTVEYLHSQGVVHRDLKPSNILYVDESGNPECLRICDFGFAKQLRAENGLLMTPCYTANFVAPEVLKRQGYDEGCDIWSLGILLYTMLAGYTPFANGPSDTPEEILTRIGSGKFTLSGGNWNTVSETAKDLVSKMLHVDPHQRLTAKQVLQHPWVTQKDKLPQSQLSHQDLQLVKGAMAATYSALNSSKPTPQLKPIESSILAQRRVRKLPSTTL
Chain of Protein kinase C iota type (Homo sapiens) (P41743 whole entry, looked up): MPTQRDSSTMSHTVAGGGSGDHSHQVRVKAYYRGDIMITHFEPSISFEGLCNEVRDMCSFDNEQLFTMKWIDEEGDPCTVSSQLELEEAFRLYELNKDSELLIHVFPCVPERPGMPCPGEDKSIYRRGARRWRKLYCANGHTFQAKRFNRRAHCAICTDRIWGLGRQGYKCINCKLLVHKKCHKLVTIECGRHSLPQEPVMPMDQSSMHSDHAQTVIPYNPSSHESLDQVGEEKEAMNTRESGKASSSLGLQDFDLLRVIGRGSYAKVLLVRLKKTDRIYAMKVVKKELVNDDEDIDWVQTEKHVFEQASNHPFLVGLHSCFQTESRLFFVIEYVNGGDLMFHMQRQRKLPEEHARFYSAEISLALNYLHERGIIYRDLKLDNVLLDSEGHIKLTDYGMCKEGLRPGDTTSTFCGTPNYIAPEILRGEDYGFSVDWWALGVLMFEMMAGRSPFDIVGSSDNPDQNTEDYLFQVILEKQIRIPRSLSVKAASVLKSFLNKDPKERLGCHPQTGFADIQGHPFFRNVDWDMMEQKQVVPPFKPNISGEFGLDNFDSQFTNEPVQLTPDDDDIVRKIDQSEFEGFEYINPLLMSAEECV

## CNC(=O)c1ccccc1Oc1nc(Nc2cc(OC)c(OC)c(OC)c2)ncc1Br
[1]
  inhibition: 0%
[2]
  fold change (FC): 0.26
[3]
  inhibition: 0%

## CC(C)[C@H](NC(=O)c1cc(-c2cnn3cc(-c4ccc(OCCN5CCCCC5)cc4)cnc23)cs1)C(F)(F)F
[4]
  fold change (FC): 0
[5]
  fold change (FC): 0

## O=C(N[C@@H](C1CC1)C(F)(F)F)c1cc(-c2cnn3cc(-c4ccc(F)cc4)cnc23)cs1
[6]
  fold change (FC): 0.25
[7]
  fold change (FC): 0.21
